According to patent US12257284B2, “Lantibiotics, lantibiotic-producing bacteria, compositions and methods of production and use thereof” (MEMORIAL SLOAN-KETTERING CANCER CENTER, priority 2017, dated 2025):
Non-standard residues stand in square brackets, D forms with d. No end group written: not given here. Dhb = C/C=C(\N)C(=O)O; Dha = C=C(N)C(=O)O

How the values were obtained:
VRE [1] = assay: VRE cultured in filtered culture supernatants or size fractions, VRE CFU quantitated; format: cell-based, vancomycin-resistant Enterococcus; conditions: VRE 6 hours
Protocol: 10^7 CFU/mL B. producta or C. bolteae±10^3 CFU/mL VRE were cultured in BHIS for 6 hours anaerobically at 37° C. The culture supernatants were filtered through a 0.22 μm filter. 10^3 CFU/mL VRE were cultured in the filtered culture supernatants for 2, 6, or 24 hours anaerobically at 37° C. […] 10^7 CFU/mL B. producta, C. bolteae, P. distasonis, or B. sartorii were cultured in BHI overnight (at least 8 hours) anaerobically at 37° C. The culture supernatants were filtered through a 0.22 μm filter and diluted 1:2 in fresh BHIS. 10^3 CFU/mL VRE were cultured in the filtered culture supernatants for 2, 6, or 24 hours anaerobically at 37° C.
10^7 CFU/mL B. producta was cultured for 0, 6, 24 hours in BHIS anaerobically at 37° C. Culture growth was verified by quantitating B. producta CFU at 6, 24, 48, and 72 hours. […] The culture supernatant at 0, 6, and 24 hours was filtered through a 0.22 μm filter, then concentrated by ultrafiltration with a molecular weight cut off greater than 100 kDa. The concentrated culture supernatant was then diluted to the original volume with fresh BHIS culture medium. Concentrated/diluted medium was inoculated with 10^3 CFU/mL VRE and cultured anaerobically at 37° C. for 6, 24, 48 hours.
10^7 CFU/mL B. producta were cultured for 24 hours anaerobically at 37° C. in BHIS. […]

VRE [2] = assay: VRE cultured with ammonium sulfate precipitated, dialyzed B. producta protein, VRE CFU quantitated; format: cell-based, vancomycin-resistant Enterococcus
Protocol: 10^7 CFU/mL B. producta was cultured for 24 hours anaerobically at 37° C. in BHIS. The culture supernatant was filtered through a 0.22 μm filter. Ammonium sulfate was added to the filtered culture supernatant at varying concentrations to precipitate proteins. Precipitated proteins were resolubilized in phosphate buffered saline (PBS) (2 mg/mL) and dialyzed. The dialyzed protein was returned to the original culture volume with fresh culture medium and samples were innoculated with 10^3 CFU/mL VRE and cultured for 6 or 24 hours anaerobically at 37° C. […] 10^7 CFU/mL B. producta was cultured for 24 hours anaerobically at 37° C. in BHIS. The culture supernatant was filtered through a 0.22 μm filter. Ammonium sulfate was added to the filtered culture supernatant at varying concentrations to precipitate proteins. Precipitated proteins were resolubilized in phosphate buffered saline (PBS) (2 mg/mL) and dialyzed (the dialyzed protein was returned to the original culture volume with PBS) and samples were innoculated with 10^3 CFU/mL VRE and cultured for 6 or 24 hours anaerobically at 37° C.
10^7 CFU/mL B. producta was cultured for 24 hours anaerobically at 37° C. in BHIS. The culture supernatant was filtered through a 0.22 μm filter. 45% ammonium sulfate was added to the filtered culture supernatant to precipitate proteins. The precipitate was resolubilized in PBS (2 mg/mL), then dialyzed. The dialyzed protein was incubated with Proteinase K (1 mg/mL) for 1 hour at 37° C. These conditions are sufficient to completely digest BSA at a concentration of 100 μg/m, as evidenced by the […] in gel electrophoresis. The dialyzed protein/proteinase K solution was returned to its original volume in fresh culture medium and inoculated with 10^3 CFU/mL VRE the cultured for 6 or 24 hours anaerobically at 37° C.
10^7 CFU/mL B. producta was cultured for 24 hours anaerobically at 37° C. in BHIS. The culture supernatant was filtered through a 0.22 μm filter. 45% ammonium sulfate was added to the filtered culture supernatant to precipitate proteins. The precipitate was resolubilized in PBS (2 mg/mL), then dialyzed. The dialyzed protein was incubated at 100° C. for ten minutes. The heated, dialyzed protein solution was returned to its original volume in fresh culture medium and inoculated with 10^3 CFU/mL VRE the cultured for 6 or 24 hours anaerobically at 37° C.
10^7 CFU/mL B. producta was cultured for 24 hours anaerobically at 37° C. in BHIS. The culture supernatant was filtered through a 0.22 μm filter. Ammonium sulfate was added to the filtered culture supernatant at varying concentrations to precipitate proteins. […] Fecal pellets were collected 0, 5, 10 days after bacterial consortia transplant, and VRE was quantitated.

gram-positive bacteria = assay: Minimum inhibitory concentration by serial dilution against gram-positive bacterial strains; format: cell-based; conditions: dialyzed protein serially diluted in BHIS, 10^5 CFU/mL bacteria, 24 hours; FIG. 35
Protocol: 10^7 CFU/mL B. producta Caballero strain or Honda strain was cultured for 24 hours in BHIS anaerobically at 37° C. The culture supernatant was filtered through a 0.22 μm filter. Ammonium sulfate was added to the filtered culture supernatant at varying concentrations to precipitate proteins. Precipitated proteins were resolubilized in water (5 mg/mL) and dialyzed. The dialyzed protein or nisin (1:2) were serially diluted with fresh BHIS across a row of wells in a 96 well plate per gram-positive bacteria strain. 10^5 CFU/mL of various gram-positive bacterial strains indicated in FIG. 35 were cultured for 24 hours anaerobically at 37° C. The minimum inhibitory concentration (highest dilution at which gram-positive bacteria growth was inhibited) was thus identified.

E. faecalis = assay: Spectrum: bacterial survival with B. producta culture extract; format: cell-based; conditions: greater than 100 kDa concentrated supernatant; 6, 24 or 48 hours; FIG. 34
Protocol: (§1) 10^7 CFU/mL B. producta was cultured for 0, 6, 24 hours in BHIS anaerobically at 37° C. The culture supernatant at 0, 6, and 24 hours was filtered through a 0.22 μm filter, then concentrated by ultrafiltration with a molecular weight cut off greater than 100 kDa. The concentrated culture supernatant was then diluted to the original volume with fresh BHIS culture medium. 10^3 CFU/mL VRE, B. producta, C. bolteae, P. distasonis, B. sartorii, C. difficile, K pneumoniae, E. coli, S. aureus, E. faecalis, E. faecium, or L monocytogenes were cultured for 6, 24, or 48 hours anaerobically at 37° C.

P. distasonis = assay: as above; format: cell-based; conditions: greater than 100 kDa concentrated supernatant; 6, 24 or 48 hours; FIG. 34
Protocol: as §1

E. coli = assay: as above; format: cell-based; conditions: greater than 100 kDa concentrated supernatant; 6, 24 or 48 hours; FIG. 34
Protocol: as §1

B. producta = assay: as above; format: cell-based; conditions: greater than 100 kDa concentrated supernatant; 6, 24 or 48 hours; FIG. 34
Protocol: as §1

S. aureus = assay: as above; format: cell-based; conditions: greater than 100 kDa concentrated supernatant; 6, 24 or 48 hours; FIG. 34
Protocol: as §1

K. pneumoniae = assay: as above; format: cell-based; conditions: greater than 100 kDa concentrated supernatant; 6, 24 or 48 hours; FIG. 34
Protocol: as §1

B. sartorii = assay: as above; format: cell-based; conditions: greater than 100 kDa concentrated supernatant; 6, 24 or 48 hours; FIG. 34
Protocol: as §1

C. difficile = assay: as above; format: cell-based; conditions: greater than 100 kDa concentrated supernatant; 6, 24 or 48 hours; FIG. 34
Protocol: as §1

L. monocytogenes = assay: as above; format: cell-based; conditions: greater than 100 kDa concentrated supernatant; 6, 24 or 48 hours; FIG. 34
Protocol: as §1

E. faecium = assay: as above; format: cell-based; conditions: greater than 100 kDa concentrated supernatant; 6, 24 or 48 hours; FIG. 34
Protocol: as §1

VRE [3] = assay: Microscopy of VRE cultured with B. producta factor; format: cell-based, vancomycin-resistant Enterococcus; conditions: 10^8 CFU/mL VRE, 24 hours
Protocol: 10^7 CFU/mL B. producta was cultured for 24 hours anaerobically at 37° C. in BHIS. The culture supernatant was filtered through a 0.22 μm filter. Ammonium sulfate was added to the filtered culture supernatant at varying concentrations to precipitate proteins. Precipitated proteins were resolubilized in phosphate buffered saline (PBS) (2 mg/mL) and dialyzed. The dialyzed protein was returned to the original culture volume with supplemented PBS (the dialyzed protein was returned to the original culture volume with PBS) and samples were innoculated with 10^8 CFU/mL VRE and cultured for 24 hours anaerobically at 37° C. Bacteria were fixed onto slides for microscopy.

VRE [4] = assay: VRE cultured in cecal supernatant of mice colonized with B. producta strains; format: cell-based, vancomycin-resistant Enterococcus; conditions: cecal content 7 days post-transplant, 100 mg/mL, filtered; VRE 10^3 CFU/mL, 6 hours; FIG. 20
Protocol: 6-8 week old, C57BL/6 mice were administered ampicillin (0.5 g/L) in the drinking water for 5 days, and subsequently orally gavaged with a bacterial consortia (10^7 CFU per bacterial isolate). Bacterial consortia for oral gavage were prepared by individually culturing the B. producta Caballero strain, or the B. producta Honda strain, on Columbia base medium (agar, peptones, cornstarch) plus 5% sheep blood agar plates, anaerobically at 37° C. overnight. Each isolate was subsequently harvested and resuspended in reduced phosphate buffered saline (PBS) to a final concentration of 10^8 CFU/mL. 7 days post-transplant, cecal content was harvested and resuspended in PBS to a final concentration of 100 mg/mL. Cecal supernatant was collected by filtration through a 0.22 μm filter. VRE inoculated at 10^3 CFU/mL in the cecal supernatant and incubated at 37° C. aerobically. VRE was cultured for 6 hours and quantitated.

In the case of nisin, the “VRE growth (VRE CFU) in filtered culture supernatant or nisin medium” value (VRE [1]; filtered supernatant, nisin extract powder 1 mg per 1 mL medium, FIG. 31 left panel) is reported as “inhibited VRE” and the “VRE growth (VRE CFU) with greater than 100 kDa concentrated samples” value (VRE [1]; samples concentrated by ultrafiltration, cut off greater than 100 kDa, diluted to original volume, FIG. 31 right panel) is reported as “inhibited VRE”.
With “B. producta factor: VRE-inhibiting factor secreted by B. producta, a lantibiotic according to the disclosure (SEQ. ID. No.: 3) (I[Dhb][Dha]I[Dha]LA[Dhb]PGAK[Dhb]GALMGAV[Dhb]GILM[Dhb]APVQ[Dhb]A[Dhb]AGAQI[Dhb]GK; not fully specified; also: lantibiotic (lanthionine bridges not given here))” the “Number of VRE (CFU) over time in PBS (bactericidal effect)” value (VRE [2]; 10^5 CFU/mL VRE, 6-120 hours in PBS, FIG. 18) was “permanent decline in the number of VRE”, the “VRE inhibition after boiling” value (VRE [2]; 45% ammonium sulfate precipitate, 100° C. for ten minutes, FIG. 13) was “able to inhibit VRE” and the “VRE inhibition after Proteinase K digestion” value (VRE [2]; 45% ammonium sulfate precipitate, Proteinase K 1 mg/mL, 1 hour at 37° C., FIG. 12) was “able to inhibit VRE”. The “VRE inhibition by ammonium sulfate precipitate” value (VRE [2]; precipitate resolubilized, dialyzed, returned to volume with PBS, 6 or 24 hours, FIG. 11) was “inhibited VRE”, the “Inhibition of various gram-positive bacterial strains (minimum inhibitory concentration, highest dilution)” value (gram-positive bacteria) was “broadly inhibits gram-positive bacteria” and the “Inhibition of E. faecalis (survival relative to negative control extract)” value (E. faecalis) was “inhibited”. For the same substance, the “Inhibition of P. distasonis (survival relative to negative control extract)” value (P. distasonis) was “not”, the “Inhibition of E. coli (survival relative to negative control extract)” value (E. coli) was “not” and the “Inhibition of B. producta (survival relative to negative control extract)” value (B. producta) was “not”. The “Inhibition of S. aureus (survival relative to negative control extract)” value (S. aureus) was “inhibited”, the “Inhibition of K. pneumoniae (survival relative to negative control extract)” value (K. pneumoniae) was “not” and the “Inhibition of B. sartorii (survival relative to negative control extract)” value (B. sartorii) was “not”. The “Inhibition of C. difficile (survival relative to negative control extract)” value (C. difficile) was “not”, the “Inhibition of L. monocytogenes (survival relative to negative control extract)” value (L. monocytogenes) was “inhibited” and the “Inhibition of E. faecium (survival relative to negative control extract)” value (E. faecium) was “inhibited”. The “Phase contrast microscopy of VRE versus control” value (VRE [3]; FIG. 21) was “smaller, less numerous, more frequently in a single coccus arrangement and surrounded by more cellular debris”, the “Fluorescence microscopy of VRE (SYTO9 / propidium iodide) versus control” value (VRE [3]; FIG. 22) was “less viable” and the “Gram stain light microscopy of VRE versus control” value (VRE [3]; FIG. 23) was “generally lacked purple staining”. The “VRE growth in cecal supernatant of colonized mice” value (VRE [4]) was “inhibits VRE”.
